Reference: the supplement of paper PMC10307832

How the values were obtained:
Experiment in all cases: relative viability (nuclei count vs DMSO), 5 days (fraction); higher = more cells survive
Tipifarnib + Foretinib = compound: Cn1cncc1[C@@](N)(c1ccc(Cl)cc1)c1ccc2c(c1)c(-c1cccc(Cl)c1)cc(=O)n2C [Tipifarnib] + COc1cc2c(Oc3ccc(NC(=O)C4(C(=O)Nc5ccc(F)cc5)CC4)cc3F)ccnc2cc1OCCCN1CCOCC1 [Foretinib] (partner 0.25 µM)
Outline: (§1)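 Dosing by pin tool came one day after lung cancer cell lines were seeded in 1536-well plates, using either one drug or a fixed anchor-drug dose plus five library-drug doses (not always all listed) in √10 steps. After 5 days, nuclei were counted on 4× images. Relative viability is treated-well nuclei count divided by vehicle-well nuclei count, and values are medians of duplicate plates.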

Tipifarnib + OSI-027 = compound: Cn1cncc1[C@@](N)(c1ccc(Cl)cc1)c1ccc2c(c1)c(-c1cccc(Cl)c1)cc(=O)n2C [Tipifarnib] + COc1cccc2cc(-c3nc([C@H]4CC[C@H](C(=O)O)CC4)n4ncnc(N)c34)[nH]c12 [OSI-027] (partner 0.5 µM)
Outline: as §1

Tipifarnib + AZD7762 = compound: Cn1cncc1[C@@](N)(c1ccc(Cl)cc1)c1ccc2c(c1)c(-c1cccc(Cl)c1)cc(=O)n2C [Tipifarnib] + NC(=O)Nc1cc(-c2cccc(F)c2)sc1C(=O)N[C@H]1CCCNC1 [AZD7762] (partner 0.2 µM)
Outline: as §1

Tipifarnib + Pemetrexed = compound: Cn1cncc1[C@@](N)(c1ccc(Cl)cc1)c1ccc2c(c1)c(-c1cccc(Cl)c1)cc(=O)n2C [Tipifarnib] + Nc1nc2[nH]cc(CCc3ccc(C(=O)N[C@@H](CCC(=O)O)C(=O)O)cc3)c2c(=O)[nH]1 [Pemetrexed] (partner 0.2 µM)
Outline: as §1

Cell Line	relative viability (Tipifarnib + Foretinib; first compound 0.01 µM)	relative viability (Tipifarnib + Foretinib; first compound 0.03162 µM)	relative viability (Tipifarnib + Foretinib; first compound 0.1 µM)	relative viability (Tipifarnib + Foretinib; first compound 0.3162 µM)	relative viability (Tipifarnib + Foretinib; first compound 1 µM)	relative viability (Tipifarnib + OSI-027; first compound 0.01 µM)	relative viability (Tipifarnib + OSI-027; first compound 0.03162 µM)	relative viability (Tipifarnib + OSI-027; first compound 0.1 µM)	relative viability (Tipifarnib + OSI-027; first compound 0.3162 µM)	relative viability (Tipifarnib + OSI-027; first compound 1 µM)	relative viability (Tipifarnib + AZD7762; first compound 0.01 µM)	relative viability (Tipifarnib + AZD7762; first compound 0.03162 µM)	relative viability (Tipifarnib + AZD7762; first compound 0.1 µM)	relative viability (Tipifarnib + AZD7762; first compound 0.3162 µM)	relative viability (Tipifarnib + AZD7762; first compound 1 µM)	relative viability (Tipifarnib + Pemetrexed; first compound 0.01 µM)	relative viability (Tipifarnib + Pemetrexed; first compound 0.03162 µM)	relative viability (Tipifarnib + Pemetrexed; first compound 0.1 µM)	relative viability (Tipifarnib + Pemetrexed; first compound 0.3162 µM)	relative viability (Tipifarnib + Pemetrexed; first compound 1 µM)
NCI-H441	0.955	0.699	0.73	0.72	0.594	0.791	0.255	0.393	0.326	0.272	1.21	0.904	0.938	0.723	0.598	0.269	0.286	0.294	0.307	0.254
NCI-H650	1.21	0.999	0.934	0.749	0.704	0.486	0.375	0.297	0.305	0.266	1.39	1.17	0.77	0.667	0.429	1.02	0.917	0.846	0.626	0.36
NCI-H1355	1.12	0.94	0.855	0.694	0.734	0.37	0.344	0.295	0.262	0.26	0.833	0.707	0.517	0.473	0.478	1.04	0.966	0.81	0.776	0.745
NCI-H2347	1.34	0.76	0.723	0.756	0.528	0.479	0.368	0.411	0.259	0.334	0.834	0.721	0.665	0.505	0.61	0.455	0.446	0.446	0.406	0.398
LCLC-97TM1	1.03	0.852	0.898	0.802	0.685	0.402	0.409	0.358	0.286	0.22	0.179	0.225	0.216	0.17	0.0822	0.169	0.208	0.192	0.16	0.144
EMC-BAC-2	1.06	0.921	1	0.9	0.82	0.365	0.3	0.364	0.3	0.266	0.981	0.952	0.944	0.822	0.536	0.412	0.434	0.45	0.462	0.469
NCI-H1975	0.936	0.967	0.939	0.604	0.568	0.788	0.701	0.567	0.318	0.31	0.89	0.9	0.688	0.623	0.616	0.258	0.285	0.3	0.241	0.251
BEN	0.609	0.686	0.529	0.484	0.379	0.296	0.289	0.303	0.262	0.309	0.738	0.659	0.629	0.663	0.528	0.802	0.81	0.776	0.737	0.598
NCI-H23	1.04	0.873	0.759	0.688	0.511	0.583	0.384	0.342	0.29	0.26	0.227	0.253	0.229	0.236	0.199	0.714	0.602	0.588	0.466	0.242
CAL-12T	1.09	0.885	0.727	0.469	0.536	0.565	0.358	0.37	0.272	0.232	0.635	0.549	0.62	0.408	0.425	1.2	1.09	0.741	0.472	0.62
EPLC-272H	0.68	0.631	0.569	0.443	0.257	0.276	0.229	0.247	0.267	0.212	0.313	0.263	0.245	0.292	0.118	0.248	0.364	0.358	0.35	0.252
LCLC-103H	0.865	0.869	0.59	0.548	0.418	0.383	0.445	0.372	0.363	0.31	0.784	0.76	0.735	0.713	0.679	0.517	0.45	0.49	0.49	0.507
NCI-H2405	1.06	1.03	1.03	0.993	0.923	0.673	0.641	0.629	0.599	0.474	0.759	0.758	0.688	0.523	0.589	1.03	1.07	0.964	0.967	0.866
HCC-15	0.967	0.917	0.785	0.635	0.595	0.555	0.467	0.293	0.255	0.191	1.12	0.998	0.758	0.799	0.236	0.227	0.254	0.226	0.222	0.232
PC-3 [JPC-3]	1.06	1.02	0.955	0.749	0.6	0.751	0.67	0.598	0.343	0.324	0.805	0.714	0.532	0.519	0.457	1	1.11	0.592	0.448	0.42
NCI-H1944	0.842	0.803	0.561	0.472	0.459	0.419	0.324	0.307	0.247	0.263	0.515	0.435	0.295	0.299	0.306	0.531	0.581	0.48	0.438	0.409
